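Exposure lasted 48 hours, with cells grown in 96-well plates and compounds tested at five concentrations. At the GI50, growth is halved.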 Active and inactive are the calls of the source. No stated cut-off is given here; in the data, active = GI50 up to about 1.1 µM and inactive = higher.
Experiments:
Assay in all cases: NCI-60 cell line screen, 48 h
BT-549 = test system: BT-549
HCT-15 = test system: HCT-15
HL-60 = test system: HL-60
Hs-578T = test system: Hs-578T
MDA-MB-231 = test system: MDA-MB-231
MDA-N = test system: MDA-N
MOLT-4 = test system: MOLT-4
Malme-3M = test system: Malme-3M
NCI-H226 = test system: NCI-H226
NCI/ADR-RES = test system: NCI/ADR-RES
PC-3 = test system: PC-3
SK-MEL-28 = test system: SK-MEL-28
SK-MEL-2 = test system: SK-MEL-2
SNB-75 = test system: SNB-75
SR = test system: SR
TK-10 = test system: TK-10
UACC-62 = test system: UACC-62
DU-145 = test system: DU-145
NCI-H522 = test system: NCI-H522
SF-268 = test system: SF-268

Row | SMILES | GI50 (BT-549) | GI50 (HCT-15) [µM] | GI50 (HL-60) | GI50 (Hs-578T) | GI50 (MDA-MB-231) | GI50 (MDA-N) | GI50 (MOLT-4) | GI50 (Malme-3M) | GI50 (NCI-H226) | GI50 (NCI/ADR-RES) | GI50 (PC-3) | GI50 (SK-MEL-28) | GI50 (SK-MEL-2) | GI50 (SNB-75) | GI50 (SR) | GI50 (TK-10) | GI50 (UACC-62) | GI50 (DU-145) | GI50 (NCI-H522) | GI50 (SF-268)
1 | COC(=O)/C=C(\C)CC/C=C(\C)CCC(O)C(C)(C)O (stereo unspecified) | 29 µM (inactive) | 23.3 | 15.6 µM (inactive) | 28.6 µM (inactive) | > 100 µM (inactive) | 23.8 µM (inactive) | 15.2 µM (inactive) | 17.5 µM (inactive) | 28.8 µM (inactive) | 18.7 µM (inactive) | 14.8 µM (inactive) | 17.9 µM (inactive) | 15.9 µM (inactive) | 17.1 µM (inactive) | 17.8 µM (inactive) | 45 µM (inactive) | 25.1 µM (inactive) | – | – | –
2 | Nc1nn2c(=O)c3ccccc3nc2s1 | 22.6 µM (inactive) | 44.9 | – | > 100 µM (inactive) | – | 38.3 µM (inactive) | 23.3 µM (inactive) | – | 23.9 µM (inactive) | > 100 µM (inactive) | > 100 µM (inactive) | > 100 µM (inactive) | > 100 µM (inactive) | > 100 µM (inactive) | 20.5 µM (inactive) | > 100 µM (inactive) | > 100 µM (inactive) | > 100 µM (inactive) | 17.5 µM (inactive) | 38.8 µM (inactive)
3 | O=C(O)C(C(C(=O)O)P(=O)(O)O)P(=O)(O)O (stereo unspecified) | > 100 µM (inactive) | > 100 | > 100 µM (inactive) | > 100 µM (inactive) | – | > 100 µM (inactive) | > 100 µM (inactive) | > 100 µM (inactive) | > 100 µM (inactive) | – | > 100 µM (inactive) | > 100 µM (inactive) | > 100 µM (inactive) | > 100 µM (inactive) | > 100 µM (inactive) | > 100 µM (inactive) | > 100 µM (inactive) | > 100 µM (inactive) | – | > 100 µM (inactive)
4 | O=C1CCCC1C(=O)Nc1ccc2ccccc2c1 (stereo unspecified) | > 100 µM (inactive) | > 100 | 35.6 µM (inactive) | – | > 100 µM (inactive) | > 100 µM (inactive) | 36.2 µM (inactive) | > 100 µM (inactive) | > 100 µM (inactive) | > 100 µM (inactive) | > 100 µM (inactive) | > 100 µM (inactive) | > 100 µM (inactive) | 29.4 µM (inactive) | > 100 µM (inactive) | > 100 µM (inactive) | > 100 µM (inactive) | > 100 µM (inactive) | 49 µM (inactive) | > 100 µM (inactive)
5 | CC1=CC(=O)C[C@]2(C)[C@@H](O)CC(C(C)CO)C[C@@H]12 (stereo partly specified) | > 100 µM (inactive) | > 100 | > 100 µM (inactive) | – | > 100 µM (inactive) | > 100 µM (inactive) | > 100 µM (inactive) | – | > 100 µM (inactive) | > 100 µM (inactive) | – | > 100 µM (inactive) | > 100 µM (inactive) | > 100 µM (inactive) | – | > 100 µM (inactive) | > 100 µM (inactive) | > 100 µM (inactive) | – | > 100 µM (inactive)
6 | CNC1=CC(=O)C2=C(C1=O)[C@H]1CC[C@]3(C)C(=O)CC[C@H]3[C@@H]1CC2 | 16.4 µM (inactive) | 12.4 | – | – | 24.5 µM (inactive) | 8.17 µM (inactive) | 11.1 µM (inactive) | – | 12.4 µM (inactive) | 13 µM (inactive) | 13.1 µM (inactive) | 18.2 µM (inactive) | 2.63 µM (inactive) | 14.3 µM (inactive) | 14.1 µM (inactive) | 62.4 µM (inactive) | 14 µM (inactive) | 15 µM (inactive) | – | –
7 | O=C(O)CC(CC(=O)O)n1cccc1 | > 100 µM (inactive) | > 100 | > 100 µM (inactive) | – | > 100 µM (inactive) | > 100 µM (inactive) | > 100 µM (inactive) | – | > 100 µM (inactive) | > 100 µM (inactive) | > 100 µM (inactive) | > 100 µM (inactive) | > 100 µM (inactive) | – | > 100 µM (inactive) | > 100 µM (inactive) | > 100 µM (inactive) | > 100 µM (inactive) | > 100 µM (inactive) | –
